Test results reported in ChEMBL document CHEMBL1201862, “PubChem BioAssay data set” (2004).
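1) Cells in 96-well plates. 2) Compound, 48 h, 5 concentrations. 3) Linear interpolation between surrounding doses. 4) Unreached endpoint = highest concentration. The concentration for 50% growth inhibition is given as GI50.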 Activity calls are given as the source filed them. Cut-off read from the data, not from the text of the source: active = GI50 up to about 1.1 µM and inactive = higher.

What was measured:
Assay in all cases: growth of human tumour cells (NCI), 48 h
OVCAR-8 = system: OVCAR-8
SK-MEL-2 = system: SK-MEL-2
NCI/ADR-RES = system: NCI/ADR-RES
HCC 2998 = system: HCC 2998
SF-268 = system: SF-268
UACC-62 = system: UACC-62
HCT-15 = system: HCT-15
K562 = system: K562
Hs-578T = system: Hs-578T
786-0 = system: 786-0
HT-29 = system: HT-29
MCF7 = system: MCF7
SK-OV-3 = system: SK-OV-3
NCI-H226 = system: NCI-H226
Malme-3M = system: Malme-3M
NCI-H23 = system: NCI-H23
SNB-19 = system: SNB-19
CCRF-CEM = system: CCRF-CEM
BT-549 = system: BT-549
RPMI-8226 = system: RPMI-8226
UACC-257 = system: UACC-257
MDA-MB-231 = system: MDA-MB-231
UO-31 = system: UO-31
NCI-H522 = system: NCI-H522
HCT-116 = system: HCT-116
SW-620 = system: SW-620
OVCAR-3 = system: OVCAR-3
MDA-N = system: MDA-N
ACHN = system: ACHN
RXF 393 = system: RXF 393
M14 = system: M14
PC-3 = system: PC-3
HOP-92 = system: HOP-92
T47D = system: T47D
MDA-MB-435 = system: MDA-MB-435
MOLT-4 = system: MOLT-4
SK-MEL-5 = system: SK-MEL-5
HOP-62 = system: HOP-62
TK-10 = system: TK-10
SF-295 = system: SF-295
NCI-H460 = system: NCI-H460
CAKI-1 = system: CAKI-1
SN12C = system: SN12C
OVCAR-5 = system: OVCAR-5
LOX IMVI = system: LOX IMVI
SF-539 = system: SF-539
EKVX = system: EKVX
IGROV-1 = system: IGROV-1
SNB-75 = system: SNB-75
OVCAR-4 = system: OVCAR-4
COLO 205 = system: COLO 205
KM12 = system: KM12
A549 = system: A549
A498 = system: A498
U-251 = system: U-251

## Cn1c(N=P(c2ccccc2)(c2ccccc2)c2ccccc2)c([N+](=O)[O-])c(=O)n(C)c1=O
OVCAR-8
  GI50: 0.991 µM (active)
SK-MEL-2
  GI50: 17.4 µM (inactive)
NCI/ADR-RES
  GI50: 89.9 µM (inactive)
HCC 2998
  GI50: 71.8 µM (inactive)
SF-268
  GI50: 78.7 µM (inactive)
UACC-62
  GI50: 59.2 µM (inactive)
HCT-15
  GI50: 51.9 µM
K562
  GI50: 16.2 µM (inactive)
Hs-578T
  GI50: 25.2 µM (inactive)
786-0
  GI50: 39 µM (inactive)
HT-29
  GI50: 44.5 µM (inactive)
MCF7
  GI50: 42.3 µM (inactive)
SK-OV-3
  GI50: > 100 µM (inactive)
NCI-H226
  GI50: > 100 µM (inactive)
Malme-3M
  GI50: > 100 µM (inactive)
NCI-H23
  GI50: 99.1 µM (inactive)
SNB-19
  GI50: > 100 µM (inactive)
CCRF-CEM
  GI50: 20.2 µM (inactive)
BT-549
  GI50: 38.5 µM (inactive)
RPMI-8226
  GI50: 34 µM (inactive)
UACC-257
  GI50: 73.1 µM (inactive)
MDA-MB-231
  GI50: 32.2 µM (inactive)
UO-31
  GI50: 71 µM (inactive)
NCI-H522
  GI50: 41.9 µM (inactive)
HCT-116
  GI50: 36.6 µM (inactive)
SW-620
  GI50: 41.4 µM (inactive)
OVCAR-3
  GI50: 30.5 µM (inactive)
MDA-N
  GI50: 34.1 µM (inactive)
ACHN
  GI50: 55.7 µM (inactive)
RXF 393
  GI50: > 100 µM (inactive)
M14
  GI50: 31.6 µM (inactive)
PC-3
  GI50: 24.7 µM (inactive)
HOP-92
  GI50: > 100 µM (inactive)
T47D
  GI50: 33.7 µM (inactive)
MDA-MB-435
  GI50: 35.2 µM (inactive)
MOLT-4
  GI50: 21.2 µM (inactive)
SK-MEL-5
  GI50: 47.4 µM (inactive)
HOP-62
  GI50: 48 µM (inactive)
TK-10
  GI50: 67.9 µM (inactive)
SF-295
  GI50: 53 µM (inactive)
NCI-H460
  GI50: 43.4 µM (inactive)
CAKI-1
  GI50: > 100 µM (inactive)
SN12C
  GI50: 56.2 µM (inactive)
OVCAR-5
  GI50: > 100 µM (inactive)
LOX IMVI
  GI50: 35.9 µM (inactive)
SF-539
  GI50: > 100 µM (inactive)
EKVX
  GI50: 56.2 µM (inactive)
IGROV-1
  GI50: 48 µM (inactive)
SNB-75
  GI50: 25.5 µM (inactive)
OVCAR-4
  GI50: 41.1 µM (inactive)
COLO 205
  GI50: 44.5 µM (inactive)
KM12
  GI50: 25.6 µM (inactive)
A549
  GI50: 40.6 µM (inactive)
A498
  GI50: 59.7 µM (inactive)
U-251
  GI50: 66.2 µM (inactive)
